# Laboratory results as given in US20240067693A1, “POLYPEPTIDES AND USES THEREOF” (MEDIMMUNE LIMITED, priority 2020, published 2024).
# Numbered stars: 1 amine (or outer) side, 2 acyl side, 3 side chain; on linkers, the order of the positions; unused ones are H or OH. Bridge positions count the residues as written; N and C are the ends. Square brackets hold non-standard residues; d marks the D form. Side chains are listed from the residue outwards. Peptide text beside a SMILES is read from it. * marks the point of attachment. C18 diacid = O=C(O)CCCCCCCCCCCCCCCCC(=O)*; γGlu = O=C(O)[C@H](CCC(=O)[*:2])N[*:1]; AEEA = NCCOCCOCC(=O)O; Aib = CC(C)(N)C(=O)O
# Assays:
# [1] = target: T1, human amylin receptor (calcitonin receptor co-expressed with receptor activity modifying protein, RAMP3) (hAMYR3) (Homo sapiens, UniProt O60896+P30988); assay: cAMP production in 1321N1 cells with stable recombinant expression of human amylin receptor (hAMYR3); type: cell-based; conditions: for Ratio (selectivity hAMYR vs hCTR, ratio of EC50 values at the two receptors): EC50 hCTR / EC50 hAMYR3; for EC50: cAMP, 1321N1 cells, assay buffer with 0.1% BSA, read-out: EC50 (pM) hAMYR3
# T1 construct: expressed in transfected cells
# T1 sequence (P30988 25-474): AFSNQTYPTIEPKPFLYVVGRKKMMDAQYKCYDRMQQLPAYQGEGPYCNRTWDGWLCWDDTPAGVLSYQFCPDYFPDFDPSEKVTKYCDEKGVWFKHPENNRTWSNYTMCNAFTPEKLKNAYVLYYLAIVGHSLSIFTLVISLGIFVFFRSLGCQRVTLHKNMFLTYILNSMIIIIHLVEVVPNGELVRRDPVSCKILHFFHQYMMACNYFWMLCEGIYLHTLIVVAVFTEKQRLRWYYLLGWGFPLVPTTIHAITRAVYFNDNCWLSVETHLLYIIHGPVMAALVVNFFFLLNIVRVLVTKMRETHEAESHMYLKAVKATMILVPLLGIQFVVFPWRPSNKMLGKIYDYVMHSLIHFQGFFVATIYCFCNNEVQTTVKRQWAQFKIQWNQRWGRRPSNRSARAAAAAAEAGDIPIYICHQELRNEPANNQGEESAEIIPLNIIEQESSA
# T1 sequence (O60896 24-148 partner): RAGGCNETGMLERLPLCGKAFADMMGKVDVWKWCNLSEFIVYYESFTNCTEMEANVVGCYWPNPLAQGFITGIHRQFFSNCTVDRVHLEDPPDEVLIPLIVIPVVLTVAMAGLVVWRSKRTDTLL
# Procedure, shortened: (§1)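 Thawed cells in HBSS/0.1% BSA/25 mM HEPES pH 7.4 with 0.5 mM IBMX were incubated with peptides 30 min at room temperature; cAMP read by HTRF. EC50 from 4-parameter fit of % activation relative to maximal amylin or calcitonin effect.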
# [2] = target: T2, human calcitonin receptor (hCTR) (Homo sapiens, UniProt P30988); assay: cAMP production in 1321N1 cells with stable recombinant expression of human calcitonin receptor (hCTR); type: cell-based; conditions: cAMP, 1321N1 cells, assay buffer with 0.1% BSA; read-out: EC50 (pM) hCTR
# T2 construct: expressed in transfected cells
# T2 sequence (P30988 25-474): T1 sequence (P30988 25-474)
# Procedure, shortened: as §1
Structure (SMILES),"Ratio (selectivity hAMYR vs hCTR, ratio of EC50 values at the two receptors) [1]",EC50 [1] [pM],EC50 [2] [pM]
"CC[C@H](C)[C@H](NC(=O)[C@@H]1CCCN1C(=O)CNC(=O)[C@H](Cc1ccccc1)NC(=O)[C@H](CC(N)=O)NC(=O)C(C)(C)NC(=O)[C@H](CO)NC(=O)[C@H](CO)NC(=O)[C@H](Cc1c[nH]cn1)NC(=O)[C@H](CO)NC(=O)[C@H](CC(C)C)NC(=O)[C@H](Cc1ccccc1)NC(=O)[C@H](CC(N)=O)NC(=O)[C@H](C)NC(=O)[C@H](CC(C)C)NC(=O)[C@H](CCCNC(=N)N)NC(=O)[C@H](CCC(N)=O)NC(=O)[C@@H](NC(=O)[C@H](C)NC(=O)[C@@H]1CSSC[C@H](NC(=O)[C@H](CCCCN)NC(=O)[C@@H](N)CCCCNC(=O)CC[C@H](NC(=O)CCCCCCCCCCCCCCCCC(=O)O)C(=O)O)C(=O)N[C@@H](CC(N)=O)C(=O)N[C@@H]([C@@H](C)O)C(=O)N[C@@H](C)C(=O)N[C@@H]([C@@H](C)O)C(=O)N1)[C@@H](C)O)C(=O)N[C@@H](CC(C)C)C(=O)N1CCC[C@H]1C(=O)N1CCC[C@H]1C(=O)N[C@H](C(=O)N[C@@H](CC(N)=O)C(=O)N[C@H](C(=O)NCC(=O)N[C@@H](CO)C(=O)N[C@@H](CC(N)=O)C(=O)N[C@H](C(=O)N[C@@H](Cc1ccc(O)cc1)C(N)=O)[C@@H](C)O)C(C)C)[C@@H](C)O [Peptide 37, K(γE-C18diacid)K[CNTATC]ATQRLANFLSHSS(Aib)NFGPILPPTNVGSNTY-amide] (H-K([γGlu-C18 diacid])KCNTATCATQRLANFLSHSS[Aib]NFGPILPPTNVGSNTY-NH2; disulfide 3-8)",8,249,1960
"CC[C@H](C)[C@H](NC(=O)[C@@H]1CCCN1C(=O)CNC(=O)[C@H](Cc1ccccc1)NC(=O)[C@H](CC(N)=O)NC(=O)C(C)(C)NC(=O)[C@H](CO)NC(=O)[C@H](CO)NC(=O)[C@H](Cc1c[nH]cn1)NC(=O)[C@H](CCC(=O)O)NC(=O)[C@H](CC(C)C)NC(=O)[C@H](Cc1ccccc1)NC(=O)[C@H](CC(N)=O)NC(=O)[C@H](C)NC(=O)[C@H](CC(C)C)NC(=O)[C@H](CCCNC(=N)N)NC(=O)[C@H](CCC(N)=O)NC(=O)[C@@H](NC(=O)[C@H](C)NC(=O)[C@@H]1CSSC[C@H](NC(=O)[C@H](CCCCN)NC(=O)[C@@H](N)CCCCNC(=O)CC[C@H](NC(=O)CCCCCCCCCCCCCCCCC(=O)O)C(=O)O)C(=O)N[C@@H](CC(N)=O)C(=O)N[C@@H]([C@@H](C)O)C(=O)N[C@@H](C)C(=O)N[C@@H]([C@@H](C)O)C(=O)N1)[C@@H](C)O)C(=O)N[C@@H](CC(C)C)C(=O)N1CCC[C@H]1C(=O)N1CCC[C@H]1C(=O)N[C@H](C(=O)N[C@@H](CC(N)=O)C(=O)N[C@H](C(=O)NCC(=O)N[C@@H](CO)C(=O)N[C@@H](CC(N)=O)C(=O)N[C@H](C(=O)N[C@@H](Cc1ccc(O)cc1)C(N)=O)[C@@H](C)O)C(C)C)[C@@H](C)O [Peptide 39, K(γE-C18diacid)K[CNTATC]ATQRLANFLEHSS(Aib)NFGPILPPTNVGSNTY-amide] (H-K([γGlu-C18 diacid])KCNTATCATQRLANFLEHSS[Aib]NFGPILPPTNVGSNTY-NH2; disulfide 3-8)",10,1050,10400
"CC[C@H](C)[C@H](NC(=O)[C@@H]1CCCN1C(=O)CNC(=O)[C@H](Cc1ccccc1)NC(=O)[C@H](CC(N)=O)NC(=O)C(C)(C)NC(=O)[C@H](CO)NC(=O)[C@H](CO)NC(=O)[C@H](Cc1c[nH]cn1)NC(=O)[C@@H](NC(=O)[C@H](CC(C)C)NC(=O)[C@H](Cc1ccccc1)NC(=O)[C@H](CC(N)=O)NC(=O)[C@H](C)NC(=O)[C@H](CC(C)C)NC(=O)[C@H](CCCNC(=N)N)NC(=O)[C@H](CCC(N)=O)NC(=O)[C@@H](NC(=O)[C@H](C)NC(=O)[C@@H]1CSSC[C@H](NC(=O)[C@H](CCCCN)NC(=O)[C@@H](N)CCCCNC(=O)CC[C@H](NC(=O)CCCCCCCCCCCCCCCCC(=O)O)C(=O)O)C(=O)N[C@@H](CC(N)=O)C(=O)N[C@@H]([C@@H](C)O)C(=O)N[C@@H](C)C(=O)N[C@@H]([C@@H](C)O)C(=O)N1)[C@@H](C)O)C(C)C)C(=O)N[C@@H](CC(C)C)C(=O)N1CCC[C@H]1C(=O)N1CCC[C@H]1C(=O)N[C@H](C(=O)N[C@@H](CC(N)=O)C(=O)N[C@H](C(=O)NCC(=O)N[C@@H](CO)C(=O)N[C@@H](CCC(=O)O)C(=O)N[C@H](C(=O)N[C@@H](Cc1ccc(O)cc1)C(N)=O)[C@@H](C)O)C(C)C)[C@@H](C)O [Peptide 42, K(γE-C18diacid)K[CNTATC]ATQRLANFLVHSS(Aib)NFGPILPPTNVGSETY-amide] (H-K([γGlu-C18 diacid])KCNTATCATQRLANFLVHSS[Aib]NFGPILPPTNVGSETY-NH2; disulfide 3-8)",6,470,2950
"CC[C@H](C)[C@H](NC(=O)[C@@H]1CCCN1C(=O)CNC(=O)[C@H](Cc1ccccc1)NC(=O)[C@H](CC(N)=O)NC(=O)C(C)(C)NC(=O)[C@H](CO)NC(=O)[C@H](CO)NC(=O)[C@H](Cc1c[nH]cn1)NC(=O)[C@H](CCCNC(=N)N)NC(=O)[C@H](CC(C)C)NC(=O)[C@H](Cc1ccccc1)NC(=O)[C@H](CC(N)=O)NC(=O)[C@H](C)NC(=O)[C@H](CC(C)C)NC(=O)[C@H](CCCNC(=N)N)NC(=O)[C@H](CCC(N)=O)NC(=O)[C@@H](NC(=O)[C@H](C)NC(=O)[C@@H]1CSSC[C@H](NC(=O)[C@@H](N)CCCCNC(=O)COCCOCCNC(=O)COCCOCCNC(=O)CC[C@H](NC(=O)CCCCCCCCCCCCCCCCC(=O)O)C(=O)O)C(=O)N[C@@H](CC(N)=O)C(=O)N[C@@H]([C@@H](C)O)C(=O)N[C@@H](C)C(=O)N[C@@H]([C@@H](C)O)C(=O)N1)[C@@H](C)O)C(=O)N[C@@H](CC(C)C)C(=O)N1CCC[C@H]1C(=O)N1CCC[C@H]1C(=O)N[C@H](C(=O)N[C@@H](CCC(=O)O)C(=O)N[C@H](C(=O)NCC(=O)N[C@@H](CO)C(=O)N[C@@H](CC(N)=O)C(=O)N[C@H](C(=O)N[C@@H](Cc1ccc(O)cc1)C(N)=O)[C@@H](C)O)C(C)C)[C@@H](C)O [Peptide 45, K(O2Oc-O2Oc-γE-C18diacid)[CNTATC]ATQRLANFLRHSS(Aib)NFGPILPPTEVGSNTY-amide] (H-K([AEEA-AEEA-γGlu-C18 diacid])CNTATCATQRLANFLRHSS[Aib]NFGPILPPTEVGSNTY-NH2; disulfide 2-7; N-terminus assumed)",29,588,16900
"CC[C@H](C)[C@H](NC(=O)[C@@H]1CCCN1C(=O)CNC(=O)[C@H](Cc1ccccc1)NC(=O)[C@H](CC(N)=O)NC(=O)C(C)(C)NC(=O)[C@H](CO)NC(=O)[C@H](CO)NC(=O)[C@H](Cc1c[nH]cn1)NC(=O)[C@@H](NC(=O)[C@H](CC(C)C)NC(=O)[C@H](Cc1ccccc1)NC(=O)[C@H](Cc1c[nH]cn1)NC(=O)[C@H](C)NC(=O)[C@H](CC(C)C)NC(=O)[C@H](CCCNC(=N)N)NC(=O)[C@H](CCC(N)=O)NC(=O)[C@@H](NC(=O)[C@H](C)NC(=O)[C@@H]1CSSC[C@H](NC(=O)[C@H](CCCCN)NC(=O)[C@@H](N)CCCCNC(=O)CC[C@H](NC(=O)CCCCCCCCCCCCCCCCC(=O)O)C(=O)O)C(=O)N[C@@H](CC(N)=O)C(=O)N[C@@H]([C@@H](C)O)C(=O)N[C@@H](C)C(=O)N[C@@H]([C@@H](C)O)C(=O)N1)[C@@H](C)O)C(C)C)C(=O)N[C@@H](CC(C)C)C(=O)N1CCC[C@H]1C(=O)N1CCC[C@H]1C(=O)N[C@H](C(=O)N[C@@H](CC(N)=O)C(=O)N[C@H](C(=O)NCC(=O)N[C@@H](CO)C(=O)N[C@@H](CC(N)=O)C(=O)N[C@H](C(=O)N[C@@H](Cc1ccc(O)cc1)C(N)=O)[C@@H](C)O)C(C)C)[C@@H](C)O [Peptide 46, K(γE-C18diacid)K[CNTATC]ATQRLAHFLVHSS(Aib)NFGPILPPTNVGSNTY-amide] (H-K([γGlu-C18 diacid])KCNTATCATQRLAHFLVHSS[Aib]NFGPILPPTNVGSNTY-NH2; disulfide 3-8)",3,109,362
